# Measured values: patent publication US11180504B2 (ORCHID PHARMA LTD., priority 2016, dated 2021)
# Legend:
# [1] = system: extended spectrum β lactamase (ESBL) SHV18 producing Klebsiella pneumoniae; assay: MIC by broth micro-dilution (CLSI), ESBL SHV18 producing K. pneumoniae; format: cell-based; conditions: Klebsiella pneumoniae, ATCC700603, 22 h, ESBL +ve (SHV-18) K. pneumoniae ATCC700603; read-out: MIC
# [2] = system: carbapenemase producing K. pneumoniae; assay: MIC by broth micro-dilution (CLSI), carbapenemase producing K. pneumoniae; format: cell-based, Klebsiella pneumoniae; conditions: Klebsiella pneumoniae, ATCCBAA1705, KPC-2 K. pneumoniae ATCC BAA-1705; read-out: MIC
# [3] = system: carbapenem sensitive Pseudomonas aeruginosa; assay: MIC by broth micro-dilution (CLSI), carbapenem sensitive P. aeruginosa; format: cell-based; conditions: Pseudomonas aeruginosa, ATCC27853, Meropenem susceptible P. aeruginosa ATCC27853; read-out: MIC
# [4] = system: methicillin-sensitive Staphylococcus aureus; assay: MIC by broth micro-dilution (CLSI), methicillin-sensitive S. aureus; format: cell-based; conditions: Staphylococcus aureus, ATCC 29213 / MSSA, MSSA S. aureus ATCC29213; read-out: MIC
# [5] = system: carbapenem sensitive Escherichia coli; assay: MIC by broth micro-dilution (CLSI), carbapenem sensitive E. coli; format: cell-based; conditions: Escherichia coli, ATCC25922, ESBL −ve E. coli ATCC25922; read-out: MIC
SMILES,MIC [1],MIC [2],MIC [3],MIC [4],MIC [5]
CNC(=O)[C@@H]1C[C@H](SC2=C(C(=O)O)N3C(=O)[C@H]([C@@H](C)NC(=O)C(F)F)[C@H]3[C@H]2C)CN1 [Example 101],1 µg/mL,4 µg/mL,64 µg/mL,2 µg/mL,0.5 µg/mL
C[C@@H](NC(=O)C(F)F)[C@H]1C(=O)N2C(C(=O)O)=C(S[C@@H]3CN[C@H](C(=O)NCCO)C3)[C@H](C)[C@H]12 [Example 104],1 µg/mL,4 µg/mL,128 µg/mL,4 µg/mL,0.5 µg/mL
C[C@@H](NC(=O)C(F)F)[C@H]1C(=O)N2C(C(=O)O)=C(S[C@@H]3CN[C@H](C(=O)N4CC[C@H](N(C)C)C4)C3)[C@H](C)[C@H]12 [Example 107],4 µg/mL,4 µg/mL,16 µg/mL,4 µg/mL,1 µg/mL
CCOC(=O)C(=O)N[C@H](C)[C@H]1C(=O)N2C(C(=O)O)=C(S[C@@H]3CN[C@H](C(=O)N4CC[C@H](N)C4)C3)[C@H](C)[C@H]12 [Example 109],4 µg/mL,16 µg/mL,4 µg/mL,8 µg/mL,4 µg/mL
C[C@@H](NC(=O)C(F)F)[C@H]1C(=O)N2C(C(=O)O)=C(S[C@@H]3CN[C@H](C(=O)N4CC[C@H](NS(C)(=O)=O)C4)C3)[C@H](C)[C@H]12 [Example 110],2 µg/mL,4 µg/mL,32 µg/mL,4 µg/mL,0.5 µg/mL
CC(C)C[C@@H](N)C(=O)N[C@H](C)[C@H]1C(=O)N2C(C(=O)O)=C(S[C@@H]3CN[C@H](C(=O)N(C)C)C3)[C@H](C)[C@H]12 [Example 113],32 µg/mL,16 µg/mL,> 128 µg/mL,16 µg/mL,4 µg/mL
CONC(=O)CCNC(=O)[C@@H]1C[C@H](SC2=C(C(=O)O)N3C(=O)[C@H]([C@@H](C)NC(=O)C(F)F)[C@H]3[C@H]2C)CN1 [Example 115],2 µg/mL,8 µg/mL,> 128 µg/mL,8 µg/mL,0.5 µg/mL
C[C@@H](NC(=O)C(F)F)[C@H]1C(=O)N2C(C(=O)O)=C(S[C@@H]3CN[C@H](C(=O)NCCC(=O)NCCO)C3)[C@H](C)[C@H]12 [Example 116],2 µg/mL,4 µg/mL,> 128 µg/mL,8 µg/mL,0.5 µg/mL
C[C@@H](NC(=O)C(F)F)[C@H]1C(=O)N2C(C(=O)O)=C(S[C@@H]3CN[C@H](C(=O)N4CC[C@H](NC(=O)CC#N)C4)C3)[C@H](C)[C@H]12 [Example 119],1 µg/mL,8 µg/mL,16 µg/mL,2 µg/mL,0.5 µg/mL
C[C@@H](NC(=O)C(F)F)[C@H]1C(=O)N2C(C(=O)O)=C(S[C@@H]3CN[C@H](C(=O)N4CCC[C@H](N)C4)C3)[C@H](C)[C@H]12 [Example 122],4 µg/mL,4 µg/mL,16 µg/mL,1 µg/mL,1 µg/mL
COC(=O)N[C@H]1CCN(C(=O)[C@@H]2C[C@H](SC3=C(C(=O)O)N4C(=O)[C@H]([C@@H](C)NC(=O)C(F)F)[C@H]4[C@H]3C)CN2)C1 [Example 123],2 µg/mL,4 µg/mL,64 µg/mL,2 µg/mL,0.5 µg/mL
C[C@@H](NC(=O)C(F)F)[C@H]1C(=O)N2C(C(=O)O)=C(S[C@@H]3CN[C@H](C(=O)N4CC[C@@H](N)C4)C3)[C@H](C)[C@H]12 [Example 124],4 µg/mL,4 µg/mL,4 µg/mL,2 µg/mL,1 µg/mL
C[C@@H](NC(=O)CC#N)[C@H]1C(=O)N2C(C(=O)O)=C(S[C@@H]3CN[C@H](C(=O)N(C)C)C3)[C@H](C)[C@H]12 [Example 128],8 µg/mL,8 µg/mL,64 µg/mL,16 µg/mL,4 µg/mL
C[C@@H](NC(=O)C(F)F)[C@H]1C(=O)N2C(C(=O)O)=C(S[C@@H]3CN[C@H](C(=O)N[C@@H]4CCNC4)C3)[C@H](C)[C@H]12 [Example 130],8 µg/mL,4 µg/mL,32 µg/mL,2 µg/mL,1 µg/mL
C[C@@H](NC(=O)C(F)F)[C@H]1C(=O)N2C(C(=O)O)=C(S[C@@H]3CN[C@H](C(=O)N4CCC(N)CC4)C3)[C@H](C)[C@H]12 [Example 132],4 µg/mL,4 µg/mL,4 µg/mL,2 µg/mL,1 µg/mL

# Further molecules by falling MIC [1], results first:
MIC [1],MIC [2],MIC [3],MIC [4],MIC [5],SMILES
32 µg/mL,8 µg/mL,8 µg/mL,32 µg/mL,4 µg/mL,CNCC(=O)N[C@H](C)[C@H]1C(=O)N2C(C(=O)O)=C(S[C@@H]3CN[C@H](C(=O)N4CC[C@H](N)C4)C3)[C@H](C)[C@H]12 [Example 129]
16 µg/mL,16 µg/mL,> 128 µg/mL,4 µg/mL,1 µg/mL,C[C@@H](NC(=O)C(F)F)[C@H]1C(=O)N2C(C(=O)O)=C(S[C@@H]3CN[C@H](C(=O)NCCC(=O)NOCc4ccccc4)C3)[C@H](C)[C@H]12 [Example 111]
8 µg/mL,4 µg/mL,32 µg/mL,16 µg/mL,1 µg/mL,C[C@@H](NC(=O)CN(C)C)[C@H]1C(=O)N2C(C(=O)O)=C(S[C@@H]3CN[C@H](C(=O)N(C)C)C3)[C@H](C)[C@H]12 [Example 100]
8 µg/mL,8 µg/mL,64 µg/mL,2 µg/mL,2 µg/mL,C[C@@H](NC(=O)C(F)F)[C@H]1C(=O)N2C(C(=O)O)=C(S[C@@H]3CN[C@H](C(=O)NCCN(C)C)C3)[C@H](C)[C@H]12 [Example 102]
8 µg/mL,8 µg/mL,16 µg/mL,2 µg/mL,2 µg/mL,C[C@@H](NC(=O)C(F)F)[C@H]1C(=O)N2C(C(=O)O)=C(S[C@@H]3CN[C@H](C(=O)N4CCO[C@H](CN)C4)C3)[C@H](C)[C@H]12 [Example 126]
8 µg/mL,16 µg/mL,32 µg/mL,2 µg/mL,2 µg/mL,C[C@@H](NC(=O)C(F)F)[C@H]1C(=O)N2C(C(=O)O)=C(SC3CN[C@H](C(=O)N4CCO[C@@H](CN)C4)C3)[C@H](C)[C@H]12 (some centres unmarked) [Example 127]
4 µg/mL,8 µg/mL,8 µg/mL,0.5 µg/mL,0.5 µg/mL,C[C@@H](NC(=O)C(F)F)[C@H]1C(=O)N2C(C(=O)O)=C(S[C@@H]3CN[C@H](C(=O)N4CC[C@H](N)C4)C3)[C@H](C)[C@H]12 [Example 103]
4 µg/mL,4 µg/mL,4 µg/mL,4 µg/mL,1 µg/mL,CN[C@H]1CCN(C(=O)[C@@H]2C[C@H](SC3=C(C(=O)O)N4C(=O)[C@H]([C@@H](C)NC(=O)C(F)F)[C@H]4[C@H]3C)CN2)C1 [Example 106]
4 µg/mL,16 µg/mL,128 µg/mL,2 µg/mL,1 µg/mL,C[C@@H](NC(=O)C(F)F)[C@H]1C(=O)N2C(C(=O)O)=C(S[C@H]3C[C@@H](C(=O)N(C)C)N(C=N)C3)[C@H](C)[C@H]12 [Example 108]
4 µg/mL,4 µg/mL,8 µg/mL,64 µg/mL,2 µg/mL,CNCC(=O)N[C@H](C)[C@H]1C(=O)N2C(C(=O)O)=C(S[C@@H]3CN[C@H](C(=O)N(C)C)C3)[C@H](C)[C@H]12 [Example 112]
4 µg/mL,4 µg/mL,4 µg/mL,2 µg/mL,0.5 µg/mL,C[C@@H](NC(=O)C(F)F)[C@H]1C(=O)N2C(C(=O)O)=C(S[C@@H]3CN[C@H](C(=O)N4CCNCC4)C3)[C@H](C)[C@H]12 [Example 120]
4 µg/mL,4 µg/mL,8 µg/mL,1 µg/mL,0.5 µg/mL,C[C@@H](NC(=O)C(F)F)[C@H]1C(=O)N2C(C(=O)O)=C(S[C@@H]3CN[C@H](C(=O)N4CC[C@H](NC(=O)CN)C4)C3)[C@H](C)[C@H]12 [Example 121]
4 µg/mL,8 µg/mL,8 µg/mL,4 µg/mL,1 µg/mL,C[C@@H](NC(=O)C(F)F)[C@H]1C(=O)N2C(C(=O)O)=C(S[C@@H]3CN[C@H](C(=O)N4CC[C@H](NS(=O)(=O)CCN)C4)C3)[C@H](C)[C@H]12 [Example 133]
2 µg/mL,4 µg/mL,> 128 µg/mL,2 µg/mL,0.5 µg/mL,C[C@@H](NC(=O)C(F)F)[C@H]1C(=O)N2C(C(=O)O)=C(S[C@@H]3CN[C@H](C(=O)N4CC[C@H](NS(=O)(=O)N(C)C)C4)C3)[C@H](C)[C@H]12 [Example 117]
2 µg/mL,8 µg/mL,64 µg/mL,4 µg/mL,0.5 µg/mL,C[C@@H](NC(=O)C(F)F)[C@H]1C(=O)N2C(C(=O)O)=C(S[C@@H]3CN[C@H](C(=O)N4CC[C@H](NC(=O)N(C)C)C4)C3)[C@H](C)[C@H]12 [Example 118]
2 µg/mL,8 µg/mL,16 µg/mL,4 µg/mL,0.5 µg/mL,C[C@@H](NC(=O)C(F)F)[C@H]1C(=O)N2C(C(=O)O)=C(S[C@@H]3CN[C@H](C(=O)N4CC(N)C4)C3)[C@H](C)[C@H]12 [Example 131]
